According to patent US4416884A, “Piperazinylbenzoheterocyclic compounds” (Otsuka Pharmaceutical Co., Ltd., priority 1978, dated 1983):
Values after ≈ are worked out from the molar mass of the structure shown. Read-outs that look alike come from different tables or passages of the source.

Experiments:
[1] = inactivation ratio by human serum protein; details: 3.1 mcg/ml, 37° C.
Method: A 1/15 mol/l phosphate buffer was added to powder of Moni-Trol 1 (dehydrated preparation of human serum, a product of Midori Juji Co., Ltd.) to prepare a composition having the same serum protein concentration as natural human serum and this preparation was labeled "100% human serum", an aliquot of the "100% human serum" preparation was mixed with the same volume of the above buffer to prepare "50% human serum" and another aliquot was mixed with 4 times as much as its volume of the buffer to prepare "20% human serum".

[2] = system: Test Organism 2 (Escherichia Coli NIHJ JC-2 (IFO 12734)); test: influence of the addition of horse serum on the MIC; assay type: cell-based
[3] = system: Test Organism 17 (Pseudomonas putida IFO 13696); test: as above; assay type: cell-based
[4] = system: Test Organism 1 (Escherichia Coli NIHJ); test: as above; assay type: cell-based
[5] = system: Proteus morganii IID Kono; test: antimicrobial activity, serial dilution method on agar plate; assay type: cell-based; details: Morganella morganii
Outline: (§1)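 Serial dilution on Heart Infusion agar; inoculum 1×10^8 cells/ml (O.D. 660 mμ 0.07–0.16) or 1×10^6 cells/ml diluted from it; MIC in mcg/ml.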

[6] = system: Salmonella typhi 0-901 (NCTC 8393); test: as above; assay type: cell-based; details: Salmonella enterica, read-out: Minimum Inhibitory Concentration
Outline: as §1

[7] = system: Streptococcus pneumoniae Type II; test: as above; assay type: cell-based
Outline: as §1

[8] = system: Corinebacterium diphteriae; test: as above; assay type: cell-based
Outline: as §1

[9] = system: Escherichia Coli NIHJ JC-2 (IFO 12734); test: as above; assay type: cell-based; details: Escherichia coli, read-out: Minimum Inhibitory Concentration
Outline: as §1

[10] = system: Pseudomonas aeruginosa E-2; test: as above; assay type: cell-based
Outline: as §1

[11] = system: Pseudomonas maltophilia IFO 12692; test: as above; assay type: cell-based; details: Stenotrophomonas maltophilia, IFO12692, read-out: Minimum Inhibitory Concentration
Outline: as §1

Klebsiella pneumoniae = test: as above; assay type: cell-based
Outline: as §1

[12] = system: Streptococcus pyogenes IID S-23; test: as above; assay type: cell-based
Outline: as §1

[13] = system: Streptococcus pyogenes IID Cook; test: as above; assay type: cell-based
Outline: as §1

[14] = system: Klebsiella pneumoniae ST-101; test: as above; assay type: cell-based
Outline: as §1

[15] = system: Test Organism 27 (Streptococcus pneumoniae Type III); test: influence of the addition of horse serum on the MIC; assay type: cell-based
[16] = system: Test Organism 16 (Pseudomonas maltophilia IFO 12692); test: as above; assay type: cell-based; details: Stenotrophomonas maltophilia
[17] = read-out: Minimum Inhibitory Concentration, horse serum 0%, inoculum 10^6
[18] = read-out: Minimum Inhibitory Concentration, horse serum 0%, inoculum 10^8
[19] = read-out: Minimum Inhibitory Concentration, horse serum 10%, inoculum 10^6
[20] = read-out: Minimum Inhibitory Concentration, horse serum 10%, inoculum 10^8
[21] = read-out: Minimum Inhibitory Concentration, horse serum 20%, inoculum 10^6
[22] = read-out: Minimum Inhibitory Concentration, horse serum 20%, inoculum 10^8
[23] = read-out: Minimum Inhibitory Concentration, horse serum 40%, inoculum 10^6
[24] = read-out: Minimum Inhibitory Concentration, horse serum 40%, inoculum 10^8
[25] = read-out: Minimum Inhibitory Concentration, inoculum 1 × 10^6 cells/ml
[26] = read-out: Minimum Inhibitory Concentration, inoculum 1 × 10^8 cells/ml

CC1CCc2c(N3CCNCC3)ccc3c(=O)c(C(=O)O)cn1c23 (stereo not drawn) [A]
fraction unbound at 2 h ([1]; 10% human serum): 0.918
fraction unbound at 2 h ([1]; 20% human serum): 1
fraction unbound at 2 h ([1]; 100% human serum): 1
MIC [2, 17]: 1.6 µg/mL (≈ 4.89 µM)
MIC [2, 18]: 1.6 µg/mL (≈ 4.89 µM)
MIC [2, 19]: 0.8 µg/mL (≈ 2.44 µM)
MIC [2, 20]: 0.8 µg/mL (≈ 2.44 µM)
MIC [2, 21]: 0.8 µg/mL (≈ 2.44 µM)
MIC [2, 22]: 0.8 µg/mL (≈ 2.44 µM)
MIC [2, 23]: 0.4 µg/mL (≈ 1.22 µM)
MIC [2, 24]: 0.4 µg/mL (≈ 1.22 µM)
MIC ([3]; IFO13696, read-out: Minimum Inhibitory Concentration, horse serum 0%, inoculum 10^6): 0.2 µg/mL (≈ 0.611 µM)
MIC ([3]; IFO13696, read-out: Minimum Inhibitory Concentration, horse serum 0%, inoculum 10^8): 0.4 µg/mL (≈ 1.22 µM)
MIC ([3]; IFO13696, read-out: Minimum Inhibitory Concentration, horse serum 10%, inoculum 10^6): 0.2 µg/mL (≈ 0.611 µM)
MIC ([3]; IFO13696, read-out: Minimum Inhibitory Concentration, horse serum 10%, inoculum 10^8): 0.2 µg/mL (≈ 0.611 µM)
MIC ([3]; IFO13696, read-out: Minimum Inhibitory Concentration, horse serum 20%, inoculum 10^6): 0.2 µg/mL (≈ 0.611 µM)
MIC ([3]; IFO13696, read-out: Minimum Inhibitory Concentration, horse serum 20%, inoculum 10^8): 0.2 µg/mL (≈ 0.611 µM)
MIC ([3]; IFO13696, read-out: Minimum Inhibitory Concentration, horse serum 40%, inoculum 10^6): 0.2 µg/mL (≈ 0.611 µM)
MIC ([3]; IFO13696, read-out: Minimum Inhibitory Concentration, horse serum 40%, inoculum 10^8): 0.2 µg/mL (≈ 0.611 µM)
MIC [4, 17]: 6.3 µg/mL (≈ 19.2 µM)
MIC [4, 18]: 6.3 µg/mL (≈ 19.2 µM)
MIC [4, 19]: 3.1 µg/mL (≈ 9.47 µM)
MIC [4, 20]: 6.3 µg/mL (≈ 19.2 µM)
MIC [4, 21]: 3.1 µg/mL (≈ 9.47 µM)
MIC [4, 22]: 3.1 µg/mL (≈ 9.47 µM)
MIC [4, 23]: 3.1 µg/mL (≈ 9.47 µM)
MIC [4, 24]: 3.1 µg/mL (≈ 9.47 µM)
MIC [5, 25]: 3.1 µg/mL (≈ 9.47 µM)
MIC [5, 26]: 6.3 µg/mL (≈ 19.2 µM)
MIC ([6]; inoculum 1 × 10^6 cells/ml): 0.2 µg/mL (≈ 0.611 µM)
MIC ([6]; inoculum 1 × 10^8 cells/ml): 0.4 µg/mL (≈ 1.22 µM)
MIC [7, 25]: 6.3 µg/mL (≈ 19.2 µM)
MIC [7, 26]: 25 µg/mL (≈ 76.4 µM)
MIC [8, 25]: 1.6 µg/mL (≈ 4.89 µM)
MIC [8, 26]: 1.6 µg/mL (≈ 4.89 µM)
MIC [9]: 1.6 µg/mL (≈ 4.89 µM)
MIC ([10]; E2, read-out: Minimum Inhibitory Concentration, inoculum 1 × 10^6 cells/ml): 6.3 µg/mL (≈ 19.2 µM)
MIC ([10]; E2, read-out: Minimum Inhibitory Concentration, inoculum 1 × 10^8 cells/ml): 12.5 µg/mL (≈ 38.2 µM)
MIC [11]: 12.5 µg/mL (≈ 38.2 µM)
MIC (Klebsiella pneumoniae; [25]): 1.6 µg/mL (≈ 4.89 µM)
MIC (Klebsiella pneumoniae; [26]): 1.6 µg/mL (≈ 4.89 µM)
MIC ([12]; IIDS23, read-out: Minimum Inhibitory Concentration, inoculum 1 × 10^6 cells/ml): 12.5 µg/mL (≈ 38.2 µM)
MIC ([12]; IIDS23, read-out: Minimum Inhibitory Concentration, inoculum 1 × 10^8 cells/ml): 25 µg/mL (≈ 76.4 µM)
MIC [13, 25]: 12.5 µg/mL (≈ 38.2 µM)
MIC [13, 26]: 25 µg/mL (≈ 76.4 µM)
MIC ([14]; ST101, read-out: Minimum Inhibitory Concentration, inoculum 1 × 10^6 cells/ml): 0.2 µg/mL (≈ 0.611 µM)
MIC ([14]; ST101, read-out: Minimum Inhibitory Concentration, inoculum 1 × 10^8 cells/ml): 0.4 µg/mL (≈ 1.22 µM)
MIC [15, 17]: 6.3 µg/mL (≈ 19.2 µM)
MIC [15, 18]: 12.5 µg/mL (≈ 38.2 µM)
MIC [15, 19]: 6.3 µg/mL (≈ 19.2 µM)
MIC [15, 20]: 6.3 µg/mL (≈ 19.2 µM)
MIC [15, 21]: 6.3 µg/mL (≈ 19.2 µM)
MIC [15, 22]: 6.3 µg/mL (≈ 19.2 µM)
MIC [15, 23]: 3.1 µg/mL (≈ 9.47 µM)
MIC [15, 24]: 6.3 µg/mL (≈ 19.2 µM)
MIC ([16]; IFO12692, read-out: Minimum Inhibitory Concentration, horse serum 0%, inoculum 10^6): 1.6 µg/mL (≈ 4.89 µM)
MIC ([16]; IFO12692, read-out: Minimum Inhibitory Concentration, horse serum 0%, inoculum 10^8): 3.1 µg/mL (≈ 9.47 µM)
MIC ([16]; IFO12692, read-out: Minimum Inhibitory Concentration, horse serum 10%, inoculum 10^6): 1.6 µg/mL (≈ 4.89 µM)
MIC ([16]; IFO12692, read-out: Minimum Inhibitory Concentration, horse serum 10%, inoculum 10^8): 1.6 µg/mL (≈ 4.89 µM)
MIC ([16]; IFO12692, read-out: Minimum Inhibitory Concentration, horse serum 20%, inoculum 10^6): 0.8 µg/mL (≈ 2.44 µM)
MIC ([16]; IFO12692, read-out: Minimum Inhibitory Concentration, horse serum 20%, inoculum 10^8): 0.8 µg/mL (≈ 2.44 µM)
MIC ([16]; IFO12692, read-out: Minimum Inhibitory Concentration, horse serum 40%, inoculum 10^6): 0.4 µg/mL (≈ 1.22 µM)
MIC ([16]; IFO12692, read-out: Minimum Inhibitory Concentration, horse serum 40%, inoculum 10^8): 0.8 µg/mL (≈ 2.44 µM)
